How the values were obtained:
BrmGRX = target: T1, BrmGRX (Brucella melitensis, UniProt Q8YJA2); experiment: biochemical; format: binding
T1 construct: gene BMEI0184

hGRX1 = target: T2, hGRX1 (Homo sapiens, UniProt P35754); format: binding; settings: read-out: hGRX1 Kd ± S.D.
T2 sequence (P35754 2-106): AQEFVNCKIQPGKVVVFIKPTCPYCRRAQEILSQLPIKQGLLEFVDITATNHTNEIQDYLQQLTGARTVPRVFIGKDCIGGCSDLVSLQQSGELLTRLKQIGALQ

PaGRX = target: T3, PaGRX (Pseudomonas aeruginosa, UniProt Q9HU55); experiment: biochemical
T3 construct: gene grx
T3 sequence (Q9HU55 whole entry): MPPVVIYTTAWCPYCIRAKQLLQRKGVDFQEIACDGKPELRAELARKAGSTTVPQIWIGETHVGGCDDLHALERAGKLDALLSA

T1 sequence (Q8YJA2 1-92): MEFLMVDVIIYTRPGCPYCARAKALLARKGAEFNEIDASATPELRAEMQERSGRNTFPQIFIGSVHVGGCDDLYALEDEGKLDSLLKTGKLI

Row | Compound | Kd (BrmGRX) | Kd (hGRX1) | Kd (PaGRX)
1 | O=C(O)c1cc(-c2ccco2)[nH]n1 [RK104] | 0.9 ± 0.15 mM | 2.89 ± 0.47 mM | 0.72 ± 0.16 mM
2 | Cn1nc(-c2ccco2)cc1C(=O)O [RK144] | 5.24 ± 0.92 mM | 5.42 ± 0.9 mM | 1.92 ± 0.42 mM
3 | O=C(O)c1ccc(-n2cccn2)cc1 [RK192] | 5.56 ± 0.51 mM | 5.05 ± 1.27 mM | 5.26 ± 1.12 mM
4 | O=C(O)c1ccc(-n2cccc2)cc1 [RK207] | – | 2.45 ± 0.52 mM | 1.9 ± 0.34 mM
5 | Cc1cc2ncc(C(=O)O)c(C)n2n1 [RK208] | 2.28 ± 0.3 mM | 1.61 ± 0.19 mM | 0.56 ± 0.08 mM
6 | Cn1nc(C(=O)O)cc1-c1ccccc1 [RK246] | – | 5.22 ± 1.16 mM | 8.48 ± 2.06 mM
7 | CN1CCN(C)c2cc(CN)ccc21 [RK395] | 5.49 ± 3.22 mM | 1.86 ± 1.15 mM | 0.51 ± 0.37 mM

— publication PMC6983068, “Identifying Ortholog Selective Fragment Molecules for Bacterial Glutaredoxins by NMR and Affinity Enhancement by Modification with an Acrylamide Warhead” (Molecules, 2019)
